The conditions of data set [1]: 298.15 K; 101.33 kPa; Liquid; Vibrating tube method.
A short description of data set [2]: Solid-liquid equilibrium temperature. The following applies: 101 kPa, visual observation.

Numbers after ± are expanded uncertainties.

Experimental findings from the NIST ThermoML archive (doi:10.1016/j.fluid.2018.09.023) are described below.

In the case of `CCOC(=O)OCC` [diethyl carbonate], in data set [1], the mass density – broadly, the mass of a sample divided by its volume – was 969.18 ± 0.07 kg/m3.
In the case of `COC(=O)OC` [dimethyl carbonate], the Solid-liquid equilibrium temperature in data set [2] amounted to 278.11 ± 4 K. Also, the mass density in data set [1] was found to be 1063.26 ± 0.08 kg/m3.
`O=C(Oc1ccccc1)Oc1ccccc1` [diphenyl carbonate]: in data set [2], the Solid-liquid equilibrium temperature turned out to be 352.7 ± 4 K.
For the molecule `CCCOC(=O)OCCC` [dipropyl carbonate], in data set [1], the mass density came out at 938.35 ± 0.13 kg/m3.
With `CCO` [ethanol], the mass density in data set [1] is 785.02 ± 0.13 kg/m3.
The same measure, in the same setting: to `CCCO` [propan-1-ol] belongs 800.06 ± 0.12 kg/m3.
Same read-out and setting: the result for `CC(C)O` [propan-2-ol] reads 780.79 ± 0.13 kg/m3.
